Assay results published in patent publication US20020058020A1, “Isolated amphiphilic peptides derived from the cytoplasmic tail of viral envelope proteins” (priority 1999, published 2002).
Ends that are not written are not given here. R1 = not defined here

How the values were obtained:
[1] = Peptide-induced K+ release from unilamellar liposomes (Example 2); conditions: 22° C.; for % K+ - Release POPC: POPC liposomes; for % K+ - Release POPC:POPG1:1: POPC:POPG 1:1 liposomes; for % K+ - Release POPC:POPG,3:1: POPC:POPG 3:1 liposomes
Procedure: Peptide-induced K′ release from liposomes. Liposomes (see above) were made in 100 nM KCl, 10 mM Tris-HCl, pH 7.5. The external KCl was reduced to less than 0.1 mM by two passages through a PD10 column (Pharmacia Biotech AB, Uppsala, Sweden) equilibrated in NaCl buffer (100 mM NaCl, 10 mM Tris-HCl, pH 7.5). Potassium release from liposomes was detected by a K′-selective microelectrode (Micro-electrode Inc.) and recorded on VHS tape using a pulse-code modulator. Peptides were assayed at 10 μM and 30 μM.
Unilamellar liposomes formed from (i) POPC; (ii) POPC and POPG at a molar ratio of POPC: POPG of 3:1, or (iii) POPC and POPG at a molar ratio of POPC: POPG of 1:1 were prepared in 100 mM KC1 according to the procedure described in Example 1. Peptide-induced K+ release from the liposomes also was detected according to the procedure described in Example 1. All measurements were carried out at 22° C.

[2] = tested on: XC6 cell co-cultured with env-transfected 293T cells; assay: End point cell-to-cell fusion assay, 293T/XC6 co-culture; conditions: relative fusion efficiency, WT = 100
Procedure: Viral particles were obtained from 293T cells transfected transiently (n=3−5) with the expression plasmids for env, gag-pol, and β-gal, with wild type or mutant (616*, 601*, 598*, 595SR*, 578*, GLA ecto) env. Transduction efficiency of these virions (white bars=titers) was tested on NIH3T3 cells. The Env fusogenicity (filled bars =% fusion) was measured by expressing Env only in 293T cells. The indicator XC6 cells were added 24 hours post-transfection, were fixed 12 hours later and scored microscopically on ten 2 mm^2 grids for syncytia (cells with four or more nuclei).
Cell-To-Cell Fusion Assays For the end point fusion assay, 5×10^5 XC6 cells were added to the env transfected 293 T cells 20 hrs. post-transfection, and stained with methylene blue (0.01% in methanol) at about 36 hours post-transfection for syncytia (cells with 4 or more nuclei) scoring.
The end point fusion assay measures env-induced cell-to-cell fusion between env-transfected 293T cells and the ecotropic receptor expressing XC cells at 36 hrs post-transfection.

NIH3T3 cells [3] = assay: Syncytia formation in env-transfected NIH3T3 cells; format: cell-based; conditions: relative fusion efficiency, normalized to 616* = 100
NIH3T3 cells [4] = assay: Transduction assay, β-gal titer on NIH3T3 cells; format: cell-based; conditions: WT = 100
[5] = tested on: env-transfected 293T cells; assay: Cell surface envelope protein expression by indirect immunofluorescence; conditions: relative, WT = 100
Procedure: NIH3T3 cells (1H10^5) , 293T or 293/12 (1H10^6) per 60 mm2 plates were transfected according to the Ca(PO4)2 transfection protocol of 5′-3′ Inc. (Boulder, Colo.) (day 1). For cell surface expression and co-culture experiments, 15 μg env expression plasmid was used.
Cell Surface Expression And The Analysis Of Viral Envelope Particle Incorporation Assays were done as described in Januszeski, et al., J. Virol., Vol. 71, pgs.

[6] = Electron paramagnetic resonance analysis of spin labeled peptides with liposomes; format: physicochemical; conditions: for aggregation state by EPR (in words): membrane-bound state or solution
Procedure: B. Spin-Labeled Peptide 598-616 Associates With Membranes As Determined By Electron Paramagnetic Resonance (EPR) Analysis. […]; lipid to peptide molar ratio 100:1; solid line). The arrow marks the position of a small component of free spin.
Spin labeled peptides (50 μM) diluted in buffer (50mM NaPO4, 100 mM NaCl, pH 7.4) were added to the extruded liposomes at a peptide-to-lipid molar ratio of greater than 1/100. X-band electron paramagnetic resonance (EPR) spectra were recorded at room temperature. The spin accessibility parameter (II) was determined for 20 mM nickel ethylenediaminediacetic acid, or NiEDDA, and O2 in equilibrium with air as previously described (Farahbakhsh, et al., Photochemistry and Photobiolocy, Vol. 56, pgs. 1019-1033 (1992)). The topology or context parameter φ was calculated as φ=ln [II(O2)/II(NiEDDA)] (Altenbach, et al., Proc. Nat. Acad. Sci., Vol. 91, pgs. 1667-1671 (1994)).
The structural features of the peptide 598-616 bound to membranes were investigated further by EPR analysis of corresponding peptides modified to contain single R1 nitroxide side chains at the positions indicated in FIG. 2C. For each labeled peptide in solution, the EPR spectrum consisted of three sharp resonance lines characteristic of a random coil for peptides containing R1 (Farahbakhsh, et al., Biochemistry, Vol. 34, pgs. 509-516 (1995)). A representative example is shown by the dotted line in FIG. 2B for the V606-R1 peptide. […] Judging from the line shapes, the contribution from the unbound peptide is very small, less than 1% (arrow FIG. 2B). All peptides 598-616 gave similar effects, although the individual line shapes varied (data not shown).
Spin-spin interactions between nitroxides result in spectral broadening over and above that due to motional effects (Mchaourab, et al., Biochemistry, Vol. 36, pgs. 307-316 (1997)).

[7] = Circular dichroism analysis of α-helical content; format: physicochemical; conditions: for secondary structure by CD (in words): aqueous vs liposome environment
Procedure: A. Membrane-Dependent Formation Of An α-Helical Structure By Peptide 598-616 As measured By Circular Dichroism (CD). The plot represents an average of 9 CD spectra for 50 μM peptide 598-616 in an aqueous solution (20 mM NaPO4,pH 7, dashed line), and in presence of liposomal membrane vesicles (POPG/POPC [1:3] liposomes in 20 mM Na2 PO4, pH 7.4; lipid to peptide molar ratio 100:1; solid line). The measurements were obtained for wavelength 195-250 nm at 20 mdeg sensitivity.
The peptides for circular dichroism (CD) analysis were used at a final concentration of 50 μM. The stock solution of extruded liposomes at 50 mg/ml was used. The final peptide-to-lipid molar ratio was 1/100 in 20 mM Na2PO4 buffer. CD spectra were obtained using a Jasco J-600 CD spectrometer. Samples were scanned from 250 nm to 195 nm using cuvettes with a path length of 1 mm. Each result represents an average of 9 scans.
To analyze the secondary structure of the peptides corresponding to MoMuLV cytoplasmic tail segments, the peptides 598-616 and 617-632 were evaluated by CD spectroscopy. The CD spectrum produced by the peptide 598-616 absorption of polarized light in an aqueous environment is characteristic of a random coil conformation (FIG. 2A, dotted line). […] The estimated percent α-helicity for peptide 598-616 is nearly 60%. Similar α-helical properties have been observed for the lytic amphiphilic segments from HIV-1 env cytoplasmic tail and the active component of bee venom, melittin (Eisenberg, et al., Biopolymers, Vol. 29, pgs. 171-177 (1992)). Thus, the computer-predicted α-helical structure for the region 598-616 is confirmed for peptide 598-616 by CD analysis in the presence of membranes.

[8] = Peptide-induced K+ release from liposomes (Example 1); format: biochemical; conditions: for % K+-release: liposomes POPG/POPC 1:3, 10 mg/ml, loaded with 100 mM KCl, total release with 0.1 M Triton X-100, <2% not detectable
Procedure: Liposomes were prepared from 1-Palmitoyl-2-Oleoyl-sn-Glycero-3-(Phospho-rac-(1-glycerol)) (POPG) and 1-Palmitoyl-2-Oleoyl-sn-Glycero-3-Phosphocholine (POPC) (Avanti Polar Lipids Inc., Birmingham, Ala.). The lipid-chloroform solutions were mixed at a molar ratio of 1:3 (POPG:POPC), dried under N2 and vacuum, sonicated, and taken through freeze-thaw cycles repeated a minimum of 5 times.
Peptide-induced K′ release from liposomes. […] Enzymol., Vol. 235, pgs. 699-713 (1994).
^b Percentage of the intraliposomal K^+ release induced by […] peptides from liposomes (POPG/POPC 1:3, 10 mg/ml) loaded with 100 mM KC1 and dialyzed against 100 mM NaCl buffer. […] . Total K^+ release was obtained with 0.1 M Triton X-100.
A novel approach was developed to measure the membrane activity of peptide 598-616. Peptide-induced release of K^+ from KCl-loaded lipid vesicles was detected using a K^+-selective electrode. The addition of 10 μM wild type peptide 598-616 causes 29% K^+ content release. At a concentration of 30 μM, about 70% K^+ content is released from liposomes (data not shown). For comparison, 10 μM melittin, a lytic component of bee venom, causes 31% K^+ content release.

For “598-632 Q604C: peptide 598-632 with Q604C substitution”, which “% K+ - Release POPC” value [1] is on record?
Its value is 6%.

And the “% K+ - Release POPC:POPG1:1” value [1]?
Its value is 31%.

And the “% K+ - Release POPC:POPG,3:1” value [1]?
Its value is 30%.

With “598-611: peptide of MoMuLV env residues 598-611 (ILNRLVQFVKDRIS; UniProt P03385 631-644, looked up, fragment) [Peptide 598-611]” as the compound, how does the “% K+ - Release POPC:POPG1:1” value [1] read?
The value was 22%.

And the “% K+ - Release POPC:POPG,3:1” value [1]?
Its value is 13%.

Which “Fusion 293T/XC6” value [2] does the source give for “WT: wild type MoMuLV ecotropic envelope protein” here?
The value was 100.

And the “Fusion NIH3T” value (NIH3T3 cells [3])?
The value was 0.

What about the “Titer (relative β-gal titer)” value (NIH3T3 cells [4]) of the same compound?
The value was 100.

And the “Cell Surface Expression” value [5]?
The value was 100.

Which results are given for “598-616 D608C: peptide 598-616 with D608C substitution (ILNRLVQFVKCRISVVQAL; UniProt P03385 631-649, looked up, variant D608C)”?
% K+ - Release POPC [1]: 5%; % K+ - Release POPC:POPG1:1 [1]: 11%; % K+ - Release POPC:POPG,3:1 [1]: 7%

With Magainin [reference compound] as the compound, how does the “% K+ - Release POPC” value [1] read?
The value was 8%.

And the “% K+ - Release POPC:POPG1:1” value [1]?
The value was 51%.

And the “% K+ - Release POPC:POPG,3:1” value [1]?
The value was 43%.

For “598-616 Q604C: peptide 598-616 with Q604C substitution (ILNRLVCFVKDRISVVQAL; UniProt P03385 631-649, looked up, variant Q604C)”, which “% K+ - Release POPC” value [1] is on record?
Its value is 29%.

What about the “% K+ - Release POPC:POPG1:1” value [1] of the same compound?
Its value is 28%.

What about the “% K+ - Release POPC:POPG,3:1” value [1] of the same compound?
Its value is 20%.

With “598-616 R601C: peptide 598-616 with R601C substitution (ILNCLVQFVKDRISVVQAL; UniProt P03385 631-649, looked up, variant R601C)” as the compound, how does the “% K+ - Release POPC” value [1] read?
The value was 32%.

What about the “% K+ - Release POPC:POPG1:1” value [1] of the same compound?
The value was 13%.

What about the “% K+ - Release POPC:POPG,3:1” value [1] of the same compound?
Its value is 10%.

For “V606-R1 peptide: nitroxide-labeled peptide 598-616 V606C(R1) (ILNRLVQFC(R1)KDRISVVQAL; reading uncertain; UniProt P03385 631-649, looked up, variant V606C)”, which “contribution from the unbound peptide” value ([6]; upon addition to liposomes, judged from EPR line shapes) is on record?
Its value is “less than 1%”.

Which “aggregation state by EPR (in words)” value [6] does the source give for “598-632: peptide representing the whole cytoplasmic tail region (598-632) [Peptide 598-632]” here?
Its value is “monomeric association with the membrane”.

What about the “secondary structure by CD (in words)” value [7] of the same compound?
Its value is “higher helical content in the presence of membrane vesicles than the peptide 598-616 alone”.

What does the source list for “ILNRLVQFVKDRISVVQAL (Moloney murine sarcoma virus) [Peptide 598-616, amino acid residues 598-616 of the wild type envelope protein of Moloney Murine Leukemia Virus]”?
aggregation state by EPR (in words) [6]: monomeric association with the membrane; % K+ - Release POPC [1]: 9%; % K+ - Release POPC:POPG1:1 [1]: 24%; % K+ - Release POPC:POPG,3:1 [1]: 13%; estimated percent α-helicity ([7]; 50 μM peptide in presence of liposomes, lipid to peptide 100:1): ~60%; secondary structure by CD (in words) [7]: becomes α-helical; K+ content release ([8]; 10 μM peptide): 29%; K+ content release ([8]; 30 μM peptide, data not shown): about 70%; % K+-release [8]: 29.3 ± 3.6%

For “602-616: peptide of MoMuLV env residues 602-616 (LVQFVKDRISVVQAL; UniProt P03385 635-649, looked up, fragment) [Peptide 602-616]”, which “% K+ - Release POPC” value [1] is on record?
Its value is 2%.

What about the “% K+ - Release POPC:POPG1:1” value [1] of the same compound?
Its value is 5%.

And the “% K+ - Release POPC:POPG,3:1” value [1]?
The value was 4%.

With Triton X-100 [reference compound] as the compound, how does the “% K+ - Release POPC” value [1] read?
Its value is 100%.

And the “% K+ - Release POPC:POPG1:1” value [1]?
The value was 100%.

What about the “% K+ - Release POPC:POPG,3:1” value [1] of the same compound?
Its value is 100%.

What about the “% K+-release” value [8] of the same compound?
The value was 100%.

Which results are given for “598-616 R609A: peptide 598-616 with Arg 609 Ala mutation (ILNRLVQFVKDAISVVQAL; UniProt P03385 631-649, looked up, variant R609A)”?
% K+ - Release POPC [1]: 11%; % K+ - Release POPC:POPG1:1 [1]: 0%; % K+ - Release POPC:POPG,3:1 [1]: 0%; loss of K+ release relative to wild type peptide 598-616 [8]: 75%; % K+-release [8]: 9.9 ± 1.8%

For “598-616 F605C: peptide 598-616 with F605C substitution (ILNRLVQCVKDRISVVQAL; UniProt P03385 631-649, looked up, variant F605C)”, which “% K+ - Release POPC” value [1] is on record?
Its value is 8%.

What about the “% K+ - Release POPC:POPG1:1” value [1] of the same compound?
The value was 7%.

What about the “% K+ - Release POPC:POPG,3:1” value [1] of the same compound?
The value was 4%.

Which “% K+ - Release POPC” value [1] does the source give for `CC[C@H](C)[C@H](NC(=O)CN)C(=O)NCC(=O)N[C@@H](C)C(=O)N[C@H](C(=O)N[C@@H](CC(C)C)C(=O)N[C@@H](CCCCN)C(=O)N[C@H](C(=O)N[C@@H](CC(C)C)C(=O)N[C@H](C(=O)N[C@H](C(=O)NCC(=O)N[C@@H](CC(C)C)C(=O)N1CCC[C@H]1C(=O)N[C@@H](C)C(=O)N[C@@H](CC(C)C)C(=O)N[C@H](C(=O)N[C@@H](CO)C(=O)N[C@@H](Cc1c[nH]c2ccccc12)C(=O)N[C@H](C(=O)N[C@@H](CCCCN)C(=O)N[C@@H](CCCNC(=N)N)C(=O)N[C@@H](CCCCN)C(=O)N[C@@H](CCCNC(=N)N)C(=O)N[C@@H](CCC(N)=O)C(=O)N[C@@H](CCC(N)=O)C(N)=O)[C@@H](C)CC)[C@@H](C)CC)[C@@H](C)O)[C@@H](C)O)C(C)C)C(C)C` [melittin, reference compound] here?
Its value is 31%.

And the “% K+ - Release POPC:POPG1:1” value [1]?
The value was 27%.

And the “% K+ - Release POPC:POPG,3:1” value [1]?
Its value is 31%.

And the “K+ content release” value ([8]; 10 μM peptide)?
The value was 31%.

What about the “% K+-release” value [8] of the same compound?
Its value is 30.9 ± 2.1%.
